Data on 2 molecules can be found in patent US20060192819A1, “Recording apparatus” (Fuji Xerox Co., Ltd., priority 2005, published 2006).

The nature of this data set: Solubility of ionic liquid in 100 g of ink or treating solution. To be noted: about 23° C., left 1 day. The data set is classed as physicochemical. On the procedure:
Solubility (the amount of the ionic liquid that can be solved in 100 g of the ink) is defined by mixing the ink and the ionic liquid in predetermined amounts and leaving the resultant mixture for 1 day while keeping it at a temperature of about 23° C. The amount of ionic liquid that has separated from the ink 1 day after mixing is determined as the amount of ionic liquid exceeding the solubility of the ionic liquid in the ink.

In the case of `CC[N+](C)(CC)CCOC.O=S(=O)([N-]S(=O)(=O)C(F)(F)F)C(F)(F)F` [Example 1-2, N-diethyl-3-methyl-N-(2-methoxyethyl)ammonium bis(trifluoromethanesulfonyl)imide], the “Solubility (g) of ionic liquid in 100 g of ink” value (ink A) is listed as 0.1 g or less. Besides, the “Solubility (g) ionic liquid in 100 g of treating solution” value (treating solution A) is recorded as 0.1 g or less.
With `CC[N+](C)(CC)CCOC.F[B-](F)(F)F` [Example 1-4, N-diethyl-3-methyl-N-(2-methoxyethyl)tetrafluoroborate], where the note is “ink B”, the “Solubility (g) of ionic liquid in 100 g of ink” value is “less than 5 g”.
